Source: patent US20240381872A1, “SUBSTITUTED 2,3-DIHYDRO[1,3]THIAZOLO[4,5-B]PYRIDINES, SALTS THEREOF AND THEIR USE AS HERBICIDALLY ACTIVE SUBSTANCES” (BAYER AKTIENGESELLSCHAFT, priority 2021, published 2024)

Experiments:
Format in all cases: in vivo
[1] = system: Abutilon theophrasti (ABUTH); assay: Herbicidal pre-emergence action, section C (Table C1); conditions: visual grading after ca. 3 weeks vs untreated controls; for pest or weed control at 320 g/ha: Abutilon theophrasti, pre-emergence, 504 h, read-out: pre-emergence activity against ABUTH in %
Excerpt: Seeds of mono- and dicotyledonous weed plants and crop plants were sown, in plastic or organic planting pots, in sandy loam and covered with soil. The compounds according to the invention, formulated in the form of wettable powders (WP) or as emulsifiable concentrates (EC), were applied to the surface of the covering soil as aqueous suspension or emulsion, with the addition of 0.5% of an additive, at an application rate of 600 l of water/ha (converted). Following treatment, the pots were placed in a greenhouse and kept under optimum growth conditions for the test plants. The visual grading of the damage to the test plants was carried out after ca. 3 weeks in comparison to untreated controls (herbicidal effect in percent (%): 100% effect=plants have died off, 0% effect=as control plants).

[2] = system: Triticum aestivum (TRZAS); assay: Pre-emergence effects on crop plants, section D (Table D2); conditions: visual grading after ca. 3 weeks
Outline: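 Seeds sown in sandy loam and covered with soil; WP or EC formulations applied to the covering soil surface as aqueous suspension/emulsion with 0.5% additive at 600 l water/ha, at 320 g/ha or below. Greenhouse growth; visual damage scored after ca. 3 weeks versus untreated controls (0% = as control, 100% = dead).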

Setaria viridis (SETVI) = assay: Herbicidal post-emergence action, section E (Table E8); conditions: visual assessment ca. 3 weeks after spraying
Excerpt: (§1) Seeds of mono- and dicotyledonous weed plants and crop plants were sown, in plastic or organic planting pots, in sandy loam, covered with soil and grown in a greenhouse under controlled growth conditions. 2 to 3 weeks after sowing, the test plants were sprayed in the single-leaf stage. The compounds according to the invention, formulated in form of wettable powders (WP) or as emulsifiable concentrates (EC), were sprayed onto the green plant parts as aqueous suspension or emulsion, with the addition of 0.5% of an additive, at an application rate of 600 l of water/ha (converted). The test plants were placed in the greenhouse for ca. 3 weeks under optimum growth conditions, and then the effect of the preparations was assessed visually in comparison with untreated controls (herbicidal effect in percent (%): 100% effect=plants have died off, 0% effect=as control plants).

Kochia scoparia (KCHSC) [3] = assay: Herbicidal post-emergence action, section B (Table B4); conditions: visual rating about 3 weeks after treatment vs untreated controls; for pest or weed control at 320 g/ha / pest or weed control at 1280 g/ha: Bassia scoparia, post-emergence, 504 h, read-out: post-emergence activity against KCHSC in %
Outline: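 Visual percent control about 3 weeks post-spray, relative to untreated plants. Application was to foliage at the one-leaf stage (2 to 3 weeks after sowing in sandy loam), using WP or EC formulations in water with 0.5% additive at 600 liters per hectare.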

[4] = system: Matricaria inodora (MATIN); assay: Herbicidal post-emergence action, section B (Table B6); conditions: visual rating about 3 weeks after treatment vs untreated controls; for post-emergence activity against MATIN in %: application rate 1280 g/ha
Experimental: (§2) Seeds of mono- and dicotyledonous weed plants were placed in plastic pots in sandy loam soil (doubly sown with in each case one species of mono- or dicotyledonous weed plants per pot), covered with soil and cultivated in a greenhouse under controlled growth conditions. 2 to 3 weeks after sowing, the test plants were treated at the one-leaf stage. The compounds of the invention, formulated in the form of wettable powders (WP) or as emulsion concentrates (EC), were applied onto the green parts of the plants as aqueous suspension or emulsion with addition of 0.5% additive at a water application rate of 600 liters per hectare (converted). After the test plants had been kept in the greenhouse under optimum growth conditions for about 3 weeks, the activity of the preparations was rated visually in comparison to untreated controls. For example, 100% activity=the plants have died, 0% activity=like control plants.

[5] = system: Abutilon theophrasti (ABUTH); assay: Herbicidal post-emergence action, section E (Table E1); conditions: assessed visually after ca. 3 weeks
Excerpt: as §1

Kochia scoparia (KCHSC) [6] = assay: Herbicidal post-emergence action, section E (Table E11); conditions: visual assessment ca. 3 weeks after spraying; for pest or weed control at 80 g/ha: Bassia scoparia, 504 h, read-out: post-emergence activity against KCHSC in %
Excerpt: as §1

Zea mays (ZEAMX) = assay: Post-emergence effects on crop plants, section F (Table F1); conditions: for percent crop plant damage (phytotoxicity) on Zea mays, post-emergence at 80 g/ha / percent crop plant damage (phytotoxicity) on Zea mays, post-emergence at 320 g/ha: 504 h, read-out: post-emergence activity against ZEAMX in %; for post-emergence activity against ZEAMX in %: crop plant damage
Outline: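 Visual % damage versus untreated controls (100% = plants died, 0% = as control), assessed ca. 3 weeks after post-emergence spraying. Greenhouse plants in sandy loam were treated at the single-leaf stage with WP/EC formulations, 0.5% additive, 600 l water/ha, at 320 g/ha or below.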

[7] = system: Alopecurus myosuroides (ALOMY); assay: Herbicidal post-emergence action, section B (Table B2); conditions: Alopecurus myosuroides, post-emergence, 504 h; application rate 1280 g/ha; rated visually about 3 weeks after treatment vs untreated controls; 100% = plants have died, 0% = like control plants; read-out: post-emergence activity against ALOMY
Experimental: as §2

Brassica napus (BRSNW) = assay: Post-emergence effects on crop plants, section F (Table F5); conditions: Brassica napus, 504 h, application rate 80 g/ha, read-out: post-emergence activity against BRSNW in %
Excerpt: as §1, with “plants). Tables F1 to F4 below show the effects of selected compounds of the general formula (I) according to Table 1 on various crop plants and an application rate corresponding to 320 g/ha or below obtained by the experimental procedure mentioned above.” for “plants).”

[8] = Setaria viridis, 504 h, application rate 320 g/ha, read-out: post-emergence activity against SETVI in %

Structure (SMILES): Cc1cc2c(nc1-c1ccccc1Cl)NCS2 [Example I-049, 5-(2-chlorophenyl)-6-methyl-2,3-dihydro[1,3]thiazolo[4,5-b]pyridine]
- pest or weed control at 320 g/ha ([1]; application rate 320 g/ha): 80%
- pre-emergence activity against TRZAS in % (crop plant damage) ([2]; application rate 80 g/ha): 20%
- pest or weed control at 320 g/ha (Setaria viridis (SETVI); [8]): 80%

Structure (SMILES): CCOCCS(=O)(=O)N1C[S+]([O-])c2cc(C)c(-c3ccccc3F)nc21 (stereo not shown) [Example I-127]
- pest or weed control at 320 g/ha (Kochia scoparia (KCHSC) [3]; application rate 320 g/ha): 90%
- pest or weed control at 320 g/ha ([4]; Tripleurospermum inodorum, post-emergence, 504 h, application rate 320 g/ha, read-out: post-emergence activity against MATIN in %): 90%
- pest or weed control at 320 g/ha ([1]; application rate 320 g/ha): 90%
- pre-emergence activity against TRZAS in % (crop plant damage) ([2]; application rate 80 g/ha): 20%
- pest or weed control at 80 g/ha ([5]; Abutilon theophrasti, post-emergence, 504 h, application rate 80 g/ha, read-out: post-emergence activity against ABUTH in %): 80%
- pest or weed control at 320 g/ha (Setaria viridis (SETVI); [8]): 80%
- pest or weed control at 80 g/ha (Kochia scoparia (KCHSC) [6]; application rate 80 g/ha): 90%
- percent crop plant damage (phytotoxicity) on Zea mays, post-emergence at 80 g/ha (Zea mays (ZEAMX); application rate 80 g/ha): 20%

Structure (SMILES): COCC1(C(=O)N2CSc3cc(C)c(-c4ccccc4F)nc32)CC(Cl)=NO1 (stereo not shown) [Example I-128]
- post-emergence activity against KCHSC in % (Kochia scoparia (KCHSC) [3]; application rate 320 g/ha): 90%
- post-emergence activity against MATIN in % [4]: 90%
- pre-emergence activity against ABUTH in % ([1]; application rate 80 g/ha): 80%
- post-emergence activity against ABUTH in % ([5]; application rate 80 g/ha): 80%
- post-emergence activity against SETVI in % (Setaria viridis (SETVI); application rate 320 g/ha): 80%
- post-emergence activity against KCHSC in % (Kochia scoparia (KCHSC) [6]; application rate 80 g/ha): 90%
- post-emergence activity against ZEAMX in % (Zea mays (ZEAMX); application rate 320 g/ha): 0%

Structure (SMILES): Clc1ccccc1-c1nc2c(cc1Br)SCN2 [Example I-041, 6-bromo-5-(2-chlorophenyl)-2,3-dihydro[1,3]thiazolo[4,5-b]pyridine]
- pest or weed control at 1280 g/ha [7]: 90%
- pest or weed control at 320 g/ha (Kochia scoparia (KCHSC) [3]; application rate 320 g/ha): 90%
- pre-emergence activity against TRZAS in % (crop plant damage) ([2]; application rate 320 g/ha): 20%
- percent crop plant damage (phytotoxicity) on Zea mays, post-emergence at 320 g/ha (Zea mays (ZEAMX); application rate 320 g/ha): 20%

Structure (SMILES): Cc1cc2c(nc1-c1cccc(F)c1F)NCS2 [Example I-029, 5-(2,3-difluorophenyl)-6-methyl-2,3-dihydro[1,3]thiazolo[4,5-b]pyridine]
- pest or weed control at 1280 g/ha [7]: 90%
- pest or weed control at 320 g/ha (Kochia scoparia (KCHSC) [3]; application rate 320 g/ha): 90%
- percent crop plant damage (phytotoxicity) on Zea mays, post-emergence at 80 g/ha (Zea mays (ZEAMX); application rate 80 g/ha): 0%

Structure (SMILES): COC(=O)CCC(=O)N1CSc2cc(C)c(-c3ccccc3F)nc21 [Example I-010]
- post-emergence activity against KCHSC in % (Kochia scoparia (KCHSC) [3]; application rate 320 g/ha): 90%
- post-emergence activity against MATIN in % [4]: 90%
- pre-emergence activity against ABUTH in % ([1]; application rate 320 g/ha): 80%
- post-emergence activity against ABUTH in % ([5]; application rate 320 g/ha): 80%

Structure (SMILES): Fc1ccccc1-c1nc2c(cc1Br)SCN2 [Example I-001, 6-bromo-5-(2-fluorophenyl)-2,3-dihydro[1,3]thiazolo[4,5-b]pyridine]
- pest or weed control at 80 g/ha (Setaria viridis (SETVI); Setaria viridis, 504 h, application rate 80 g/ha, read-out: post-emergence activity against SETVI in %): 90%
- percent crop plant damage (phytotoxicity) on Zea mays, post-emergence at 320 g/ha (Zea mays (ZEAMX); application rate 320 g/ha): 10%
- crop plant damage (phytotoxicity) in % at 80 g/ha (Brassica napus (BRSNW)): 20%

Structure (SMILES): BN1CSc2cc(Br)c(-c3ccccc3C)nc21 [Example I-011]
- post-emergence activity against KCHSC in % (Kochia scoparia (KCHSC) [3]; application rate 1280 g/ha): 90%
- post-emergence activity against ZEAMX in % (Zea mays (ZEAMX); application rate 320 g/ha): 0%

Structure (SMILES): CC1(C(=O)N2CSc3cc(Br)c(-c4ccccc4)nc32)CC(Cl)=NO1 (stereo not shown) [Example I-139]
- post-emergence activity against KCHSC in % (Kochia scoparia (KCHSC) [3]; application rate 1280 g/ha): 90%
- pre-emergence activity against ABUTH in % ([1]; application rate 320 g/ha): 90%
- post-emergence activity against ABUTH in % ([5]; application rate 320 g/ha): 90%
- post-emergence activity against KCHSC in % (Kochia scoparia (KCHSC) [6]; application rate 320 g/ha): 90%
- post-emergence activity against ZEAMX in % (Zea mays (ZEAMX); application rate 320 g/ha): 0%

Structure (SMILES): CC(=O)N1CSc2cc(Br)c(-c3ccccc3Cl)nc21 [Example I-055, 1-[6-bromo-5-(2-chlorophenyl)[1,3]thiazolo[4,5-b]pyridin-3(2H)-yl]ethanone]
- pest or weed control at 1280 g/ha (Kochia scoparia (KCHSC) [3]; application rate 1280 g/ha): 90%
- pest or weed control at 320 g/ha ([1]; application rate 320 g/ha): 80%
- pre-emergence activity against TRZAS in % (crop plant damage) ([2]; application rate 80 g/ha): 0%
- percent crop plant damage (phytotoxicity) on Zea mays, post-emergence at 320 g/ha (Zea mays (ZEAMX); application rate 320 g/ha): 0%
- crop plant damage (phytotoxicity) in % at 80 g/ha (Brassica napus (BRSNW)): 10%

Structure (SMILES): Cc1ccccc1-c1nc2c(cc1C)SCN2C(=O)C1(C)CC(Cl)=NO1 (stereo not shown) [Example I-137]
- post-emergence activity against KCHSC in % (Kochia scoparia (KCHSC) [3]; application rate 320 g/ha): 90%
- post-emergence activity against MATIN in % [4]: 90%
- pre-emergence activity against ABUTH in % ([1]; application rate 320 g/ha): 90%
- pre-emergence activity against TRZAS in % (crop plant damage) ([2]; application rate 80 g/ha): 0%
- post-emergence activity against ABUTH in % ([5]; application rate 320 g/ha): 80%
- post-emergence activity against KCHSC in % (Kochia scoparia (KCHSC) [6]; application rate 80 g/ha): 90%
- post-emergence activity against ZEAMX in % (Zea mays (ZEAMX); application rate 80 g/ha): 0%

Structure (SMILES): CC1(C(=O)N2CSc3cc(Br)c(-c4ccccc4Cl)nc32)CC(Cl)=NO1 (stereo not shown) [Example I-141, [6-bromo-5-(2-chlorophenyl)[1,3]thiazolo[4,5-b]pyridin-3(2H)-yl](3-chloro-5-methyl-4,5-dihydro-1,2-oxazol-5-yl)methanone]
- pest or weed control at 1280 g/ha (Kochia scoparia (KCHSC) [3]; application rate 1280 g/ha): 90%
- pest or weed control at 320 g/ha ([1]; application rate 320 g/ha): 90%
- pre-emergence activity against TRZAS in % (crop plant damage) ([2]; application rate 80 g/ha): 0%
- pest or weed control at 320 g/ha ([5]; Abutilon theophrasti, post-emergence, 504 h, application rate 320 g/ha, read-out: post-emergence activity against ABUTH in %): 80%
- pest or weed control at 80 g/ha (Kochia scoparia (KCHSC) [6]; application rate 80 g/ha): 80%
- percent crop plant damage (phytotoxicity) on Zea mays, post-emergence at 320 g/ha (Zea mays (ZEAMX); application rate 320 g/ha): 0%
- crop plant damage (phytotoxicity) in % at 80 g/ha (Brassica napus (BRSNW)): 20%
